Test results published in patent US20240109972A1, “ANTIBODY AND TAXANE COMBINATION THERAPY” (Genmab A/S, priority 2020, published 2024).

Test system: solid malignant tumors
Assay: GEN1046 Phase I dose escalation (NCT03917381), response by RECIST v1.1
Type: in vivo, human
Description: The resistance to, failure to respond to and/or relapse from treatment with a binding agent of the invention and/or other therapeutic agent(s) may be determined according to the Response Evaluation Criteria In Solid Tumors; version 1.1 (RECIST Criteria v1.1).
The “best overall response” is the best response recorded from the start of the treatment until disease progression/recurrence (the smallest measurements recorded since the treatment started will be used as the reference for PD). Subjects with CR or PR are considered to be objective response. Subjects with CR, PR or SD are considered to be in disease control. Subjects with NE are counted as non-responders. […]
Clinical trial on GCT1046-01 (ClinicalTrials.gov Identifier: NCT03917381) was designed as a two-part trial, including an ongoing dose escalation part and a planned expansion part.
The trial consists of 2 parts; a First-in-Human (FIH) dose escalation (Phase I) and an expansion (Phase 11a).
For dose escalation, subject was required to be a man or […] and was required to have measurable disease according to RECIST 1.1.

[1] = six patients with NSCLC, prior checkpoint immunotherapy

Substance: GEN1046: PD-L1×4-1BB bispecific antibody: PD-L1-547-FEAL combined with CD137-009-HC7LC2-FEAR (SEQ ID NOs: 1, 5, 21, 19; 8, 12, 22, 20)
- Confirmed PD (Progressive Disease), patients (800 mg (N 9), Oct. 12, 2020): 2
- Confirmed PR (Partial Response), patients (800 mg (N 9), Oct. 12, 2020): 0
- Confirmed SD (Stable Disease), % of patients (800 mg (N 9), Oct. 12, 2020): 55.6%
- Confirmed SD (Stable Disease), patients (800 mg (N 9), Oct. 12, 2020): 5
- Disease Control (PR + PR + SD) Rate, % (800 mg (N 9), Oct. 12, 2020): 55.6%
- Disease Control (PR + PR + SD) Rate, patients (800 mg (N 9), Oct. 12, 2020): 5
- NE (Not Evaluable), % of patients (800 mg (N 9), Oct. 12, 2020): 22.2%
- NE (Not Evaluable), patients (800 mg (N 9), Oct. 12, 2020): 2
- Objective Response (CR + PR) Rate, patients (800 mg (N 9), Oct. 12, 2020): 0
- PD (Progressive Disease), % of patients (800 mg (N 9), Oct. 12, 2020): 22.2%
- PD (Progressive Disease), patients (800 mg (N 9), Oct. 12, 2020): 2
- PR (Partial Response), patients (800 mg (N 9), Oct. 12, 2020): 0
- CR (Complete Response), patients (1200 mg (N 4), Oct. 12, 2020): 0
- Confirmed CR (Complete Response), patients (1200 mg (N 4), Oct. 12, 2020): 0
- Confirmed Disease Control (PR + PR + SD) Rate, % (1200 mg (N 4), Oct. 12, 2020): 75.0%
- Confirmed Disease Control (PR + PR + SD) Rate, patients (1200 mg (N 4), Oct. 12, 2020): 3
- Confirmed NE (Not Evaluable), patients (1200 mg (N 4), Oct. 12, 2020): 0
- Confirmed Objective Response (CR + PR) Rate, patients (1200 mg (N 4), Oct. 12, 2020): 0
- Confirmed PD (Progressive Disease), % of patients (1200 mg (N 4), Oct. 12, 2020): 25.0%
- Confirmed PD (Progressive Disease), patients (1200 mg (N 4), Oct. 12, 2020): 1
- Confirmed PR (Partial Response), patients (1200 mg (N 4), Oct. 12, 2020): 0
- Confirmed SD (Stable Disease), % of patients (1200 mg (N 4), Oct. 12, 2020): 75.0%
- Confirmed SD (Stable Disease), patients (1200 mg (N 4), Oct. 12, 2020): 3
- Disease Control (PR + PR + SD) Rate, % (1200 mg (N 4), Oct. 12, 2020): 75.0%
- Disease Control (PR + PR + SD) Rate, patients (1200 mg (N 4), Oct. 12, 2020): 3
- NE (Not Evaluable), patients (1200 mg (N 4), Oct. 12, 2020): 0
- Objective Response (CR + PR) Rate, patients (1200 mg (N 4), Oct. 12, 2020): 0
- PD (Progressive Disease), % of patients (1200 mg (N 4), Oct. 12, 2020): 25.0%
- PD (Progressive Disease), patients (1200 mg (N 4), Oct. 12, 2020): 1
- PR (Partial Response), patients (1200 mg (N 4), Oct. 12, 2020): 0
- Partial responses, patients (ICI pre-treated NSCLC): 2
- CR (Complete Response), patients (Total (N 61), Oct. 12, 2020): 0
- Confirmed CR (Complete Response), patients (Total (N 61), Oct. 12, 2020): 0
- Confirmed Disease Control (PR + PR + SD) Rate, % (Total (N 61), Oct. 12, 2020): (65.6%)
- Confirmed Disease Control (PR + PR + SD) Rate, patients (Total (N 61), Oct. 12, 2020): 40
- Confirmed NE (Not Evaluable), % of patients (Total (N 61), Oct. 12, 2020): (11.5%)
- Confirmed NE (Not Evaluable), patients (Total (N 61), Oct. 12, 2020): 7
- Confirmed Objective Response (CR + PR) Rate, % (Total (N 61), Oct. 12, 2020): (3.3%)
- Confirmed Objective Response (CR + PR) Rate, patients (Total (N 61), Oct. 12, 2020): 2
- Confirmed PD (Progressive Disease), % of patients (Total (N 61), Oct. 12, 2020): (23.0%)
- Confirmed PD (Progressive Disease), patients (Total (N 61), Oct. 12, 2020): 14
- Confirmed PR (Partial Response), % of patients (Total (N 61), Oct. 12, 2020): (3.3%)
- Confirmed PR (Partial Response), patients (Total (N 61), Oct. 12, 2020): 2
- Confirmed SD (Stable Disease), % of patients (Total (N 61), Oct. 12, 2020): (62.3%)
- Confirmed SD (Stable Disease), patients (Total (N 61), Oct. 12, 2020): 38
- Disease Control (PR + PR + SD) Rate, patients (Total (N 61), Oct. 12, 2020): 40
- NE (Not Evaluable), % of patients (Total (N 61), Oct. 12, 2020): (11.5%)
- NE (Not Evaluable), patients (Total (N 61), Oct. 12, 2020): 7
- Objective Response (CR + PR) Rate, % (Total (N 61), Oct. 12, 2020): (6.6%)
- Objective Response (CR + PR) Rate, patients (Total (N 61), Oct. 12, 2020): 4
- PD (Progressive Disease), % of patients (Total (N 61), Oct. 12, 2020): (23.0%)
- PD (Progressive Disease), patients (Total (N 61), Oct. 12, 2020): 14
- PR (Partial Response), % of patients (Total (N 61), Oct. 12, 2020): (6.6%)
- BOR Complete Response, (percent) (Total (n = 30), 3 Feb. 2020): (0)
- BOR Complete Response, patients (Total (n = 30), 3 Feb. 2020): 0
- BOR Partial Response, (percent) (Total (n = 30), 3 Feb. 2020): (10)
- BOR Partial Response, patients (Total (n = 30), 3 Feb. 2020): 3
- BOR Progressive Disease, (percent) (Total (n = 30), 3 Feb. 2020): (26.6)
- BOR Progressive Disease, patients (Total (n = 30), 3 Feb. 2020): 8
- BOR Stable Disease, (percent) (Total (n = 30), 3 Feb. 2020): (63.3)
- BOR Stable Disease, patients (Total (n = 30), 3 Feb. 2020): 19
- Partial responses, patients (ovarian cancer): 1
- Patients who maintained stable disease [1]: two
- Patients with progressive disease [1]: two
- Patients with unconfirmed PR [1]: two
- Partial responses, patients (triple negative breast cancer): 1
